In ChEMBL document CHEMBL2034863, “Application of MM-GB/SA and WaterMap to SRC Kinase Inhibitor Potency Prediction” (ACS Med Chem Lett, 2012):
pIC50: −log10 of the molar value.

Target: Proto-oncogene tyrosine-protein kinase Src (Homo sapiens, UniProt P12931)
Sequence (P12931 2-536 limits assumed): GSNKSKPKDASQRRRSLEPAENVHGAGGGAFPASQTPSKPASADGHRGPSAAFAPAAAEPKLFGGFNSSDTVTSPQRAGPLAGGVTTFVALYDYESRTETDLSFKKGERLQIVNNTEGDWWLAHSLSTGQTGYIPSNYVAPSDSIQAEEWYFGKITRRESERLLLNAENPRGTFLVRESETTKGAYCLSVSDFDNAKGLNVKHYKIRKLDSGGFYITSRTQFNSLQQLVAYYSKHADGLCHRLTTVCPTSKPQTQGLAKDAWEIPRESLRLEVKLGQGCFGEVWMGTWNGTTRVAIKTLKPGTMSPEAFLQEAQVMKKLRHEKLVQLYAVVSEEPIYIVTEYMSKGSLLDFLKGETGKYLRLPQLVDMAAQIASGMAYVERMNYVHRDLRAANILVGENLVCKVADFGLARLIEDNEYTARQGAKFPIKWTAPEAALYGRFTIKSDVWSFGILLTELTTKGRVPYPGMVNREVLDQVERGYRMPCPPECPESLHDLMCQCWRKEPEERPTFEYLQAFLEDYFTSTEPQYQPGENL

Compound `CCCP(=O)(CCC)c1ccc(Nc2nc(C(C)C)nc3c2ncn3CC)cc1` has a pIC50 of 8.41.

`CCCCP(=O)(CCCC)c1ccc(Nc2nc(C(C)C)nc3c2ncn3CC)cc1` was tested, and the pIC50 was 8.06.

In the case of `CCn1cnc2c(Nc3ccc(P(C)(C)=O)cc3)nc(C(C)C)nc21`, the pIC50 was 7.60.

In the case of `CCn1cnc2c(Nc3ccc(P(C)(C)=O)cc3)nc(NC3CCOCC3)nc21`, the pIC50 was 7.39.

Work on `Cc1cccc(C)c1/C=C/n1cnc2c(Nc3ccc(P(C)(C)=O)cc3)nc(-c3ccccn3)nc21` yielded a pIC50 of 7.37.

For `C=Cn1cnc2c(Nc3ccc(P(C)(C)=O)cc3)nc(N3CCC(CO)CC3)nc21`, the pIC50 was 6.81.

`C=Cn1cnc2c(Nc3ccc(P(C)(C)=O)cc3)nc(OC3CCOC3)nc21` (centres undefined) was tested, and the pIC50 was 6.73.

For `CCn1cnc2c(Nc3ccc(C(C)C)cc3)nc(C(C)C)nc21`, the pIC50 was 6.41.

For `C=Cn1cnc2c(Nc3ccc(P(C)(C)=O)cc3)ncnc21`, the pIC50 was 6.00.
